The structures appear in SMILES notation.

Sequence of EGFR (Human), P00533 [T790M/L858R] (P00533 whole entry T790M/L858R, looked up): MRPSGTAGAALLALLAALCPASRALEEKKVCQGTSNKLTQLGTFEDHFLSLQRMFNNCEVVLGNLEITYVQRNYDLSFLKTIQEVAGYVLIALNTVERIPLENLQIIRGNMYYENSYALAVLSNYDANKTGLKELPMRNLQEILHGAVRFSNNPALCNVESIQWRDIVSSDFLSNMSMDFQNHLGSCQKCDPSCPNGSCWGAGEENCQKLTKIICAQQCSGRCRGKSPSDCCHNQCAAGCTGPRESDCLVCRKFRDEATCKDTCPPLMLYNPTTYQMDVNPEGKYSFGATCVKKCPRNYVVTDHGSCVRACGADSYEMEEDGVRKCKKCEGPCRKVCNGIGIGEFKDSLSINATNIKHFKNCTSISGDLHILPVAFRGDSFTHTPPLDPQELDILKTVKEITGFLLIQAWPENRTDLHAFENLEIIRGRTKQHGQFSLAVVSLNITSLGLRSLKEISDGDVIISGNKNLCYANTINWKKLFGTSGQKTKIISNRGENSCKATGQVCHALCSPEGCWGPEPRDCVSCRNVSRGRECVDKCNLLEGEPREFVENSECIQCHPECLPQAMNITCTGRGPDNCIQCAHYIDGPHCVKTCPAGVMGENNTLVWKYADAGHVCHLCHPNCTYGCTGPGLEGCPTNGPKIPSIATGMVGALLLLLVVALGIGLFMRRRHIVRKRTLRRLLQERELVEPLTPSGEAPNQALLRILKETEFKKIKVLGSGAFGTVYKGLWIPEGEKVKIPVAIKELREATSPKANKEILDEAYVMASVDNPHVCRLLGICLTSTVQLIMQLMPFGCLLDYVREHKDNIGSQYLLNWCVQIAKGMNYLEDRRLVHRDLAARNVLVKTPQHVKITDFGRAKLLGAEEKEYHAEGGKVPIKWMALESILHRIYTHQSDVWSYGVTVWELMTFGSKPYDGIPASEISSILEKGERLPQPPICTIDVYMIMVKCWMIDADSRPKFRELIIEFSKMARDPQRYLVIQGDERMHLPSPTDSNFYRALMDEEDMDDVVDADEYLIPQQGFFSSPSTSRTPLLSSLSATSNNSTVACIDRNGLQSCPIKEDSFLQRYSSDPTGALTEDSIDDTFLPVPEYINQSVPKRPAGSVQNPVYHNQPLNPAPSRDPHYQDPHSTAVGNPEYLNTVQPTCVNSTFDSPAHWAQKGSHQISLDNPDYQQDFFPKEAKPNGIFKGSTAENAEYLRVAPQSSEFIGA

For the first test, the system named is EGFR (human), P00533 [WT]. The note with it: a431.
Sequence of EGFR (human), P00533 [WT] (P00533 whole entry, looked up): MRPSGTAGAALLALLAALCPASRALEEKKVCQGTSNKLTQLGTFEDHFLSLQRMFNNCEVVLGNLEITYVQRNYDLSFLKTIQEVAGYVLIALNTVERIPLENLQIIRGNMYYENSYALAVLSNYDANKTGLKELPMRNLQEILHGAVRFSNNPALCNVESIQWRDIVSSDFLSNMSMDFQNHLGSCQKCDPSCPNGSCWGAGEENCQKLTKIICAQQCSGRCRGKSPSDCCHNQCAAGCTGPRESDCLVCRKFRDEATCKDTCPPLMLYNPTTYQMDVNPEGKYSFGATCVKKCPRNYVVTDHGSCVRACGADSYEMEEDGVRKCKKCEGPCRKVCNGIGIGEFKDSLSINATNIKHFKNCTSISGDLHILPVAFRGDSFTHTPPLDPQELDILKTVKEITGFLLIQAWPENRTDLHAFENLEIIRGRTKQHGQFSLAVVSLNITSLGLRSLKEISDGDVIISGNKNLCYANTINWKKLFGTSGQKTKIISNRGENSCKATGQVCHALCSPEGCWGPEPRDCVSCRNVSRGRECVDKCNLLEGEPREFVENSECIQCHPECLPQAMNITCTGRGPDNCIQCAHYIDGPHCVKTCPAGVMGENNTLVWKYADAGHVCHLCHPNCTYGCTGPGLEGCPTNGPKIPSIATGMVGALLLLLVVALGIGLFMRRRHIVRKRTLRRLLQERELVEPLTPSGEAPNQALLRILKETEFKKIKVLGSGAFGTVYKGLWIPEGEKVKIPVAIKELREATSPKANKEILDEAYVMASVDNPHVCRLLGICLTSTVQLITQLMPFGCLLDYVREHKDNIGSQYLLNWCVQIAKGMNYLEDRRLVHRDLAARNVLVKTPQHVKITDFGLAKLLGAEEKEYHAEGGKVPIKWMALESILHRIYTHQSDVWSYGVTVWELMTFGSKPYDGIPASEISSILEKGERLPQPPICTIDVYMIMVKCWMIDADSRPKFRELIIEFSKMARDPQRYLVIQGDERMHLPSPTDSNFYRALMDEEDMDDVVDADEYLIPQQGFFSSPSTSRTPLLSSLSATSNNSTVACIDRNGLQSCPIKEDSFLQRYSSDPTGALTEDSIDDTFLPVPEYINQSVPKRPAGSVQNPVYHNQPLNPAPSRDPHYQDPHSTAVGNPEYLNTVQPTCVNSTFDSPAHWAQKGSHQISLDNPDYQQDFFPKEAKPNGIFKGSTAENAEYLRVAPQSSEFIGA
As a reminder, the GI50 is the concentration at which growth is held to half of that of the control. The low end stands for greater sensitivity of the cells, the high end for lower sensitivity of the cells. `C=CC(=O)Nc1cccc(Oc2nc(Nc3ccc(N4CCN(C(C)C)CC4)cc3)nc3ccoc23)c1` gave a GI50 of 100 to 1000 nM. Same read-out and setting: with `C=CC(=O)Nc1cccc(Oc2nc(Nc3ccc(N4CCN(CC)CC4)cc3)nc3ccsc23)c1` the figure was 100 to 1000 nM; with `C=CC(=O)Nc1cccc(Oc2nc(Nc3ccc(C(=O)NC4CCN(C(C)C)CC4)cc3)nc3ccsc23)c1`, 100 to 1000 nM; with `C=CC(=O)Nc1cccc(Oc2nc(Nc3ccc(CN(C)C)cc3)nc3ccsc23)c1`, 100 to 1000 nM. Consider `C=CC(=O)Nc1cccc(Oc2nc(Nc3ccc(N4CCN(C(C)C)CC4)cc3)nc3ccsc23)c1`, for which the concentration for 50% growth inhibition (GI50) lay within 100 to 1000 nM.

The subject of another test is EGFR (Human), P00533 [T790M/L858R]. The note with it: nci-h1975.
`C=CC(=O)Nc1cccc(Oc2nc(Nc3ccc(N4CCN(C5CCCCC5)CC4)cc3)nc3ccsc23)c1` showed a GI50 of at most 50 nM. On the same count and under the same terms, with `C=CC(=O)Nc1cccc(Nc2nc(Nc3ccc(N4CCN(C)CC4)cc3)nc3ccsc23)c1` the figure was at most 50 nM; with `C=CC(=O)Nc1cccc(Oc2nc(Nc3ccc(N4CCN(C)CC4)cc3)nc3ccoc23)c1`, at most 50 nM; with `C=CC(=O)Nc1cccc(Oc2nc(Nc3ccc(N4CCN(C(C)C)CC4)cc3)nc3ccoc23)c1`, at most 50 nM. Still for that read-out and setting: the figure for `C=CC(=O)Nc1cccc(Oc2nc(Nc3ccc(N4CCN(CC)CC4)cc3)nc3ccsc23)c1` is at most 50 nM; for `C=CC(=O)Nc1cccc(Oc2nc(Nc3ccc(N4CCC(N5CCCCC5)CC4)cc3)nc3ccsc23)c1` it is at most 50 nM. In the case of `C=CC(=O)Nc1cccc(Oc2nc(Nc3ccc(C(=O)NC4CCN(C(C)C)CC4)cc3)nc3ccsc23)c1`, the GI50 was at most 50 nM. In turn, `C=CC(=O)Nc1cccc(Oc2nc(Nc3ccc(OCCOC)c(F)c3)nc3ccsc23)c1` came in with a GI50 of at most 50 nM.

Take `C=CC(=O)Nc1cccc(Oc2nc(Nc3ccc(NC4CCN(C)CC4)cc3)nc3ccsc23)c1`: the GI50 was in the range of 100 to 1000 nM.

Compound `C=CC(=O)Nc1cccc(Oc2nc(Nc3ccc(N4CCC(n5ccnc5)C4)cc3)nc3ccsc23)c1` (centres undefined) yielded a GI50 of at most 50 nM. On the same count and under the same terms, with `C=CC(=O)Nc1cccc(Oc2nc(Nc3ccc(C4CCN(C)CC4)cc3)nc3ccsc23)c1` the figure was at most 50 nM; with `C=CC(=O)Nc1cccc(Oc2nc(Nc3ccc(N4CC(C)OC(C)C4)c(F)c3)nc3ccsc23)c1` (centres undefined), 50 to 100 nM. The same measure, in the same setting: with `C=CC(=O)Nc1cccc(Oc2nc(Nc3ccc4c(ccn4C)c3)nc3ccsc23)c1` the figure was at most 50 nM; with `C=CC(=O)Nc1cccc(Oc2nc(Nc3ccc(CN(C)C)cc3)nc3ccsc23)c1`, at most 50 nM; with `C=CC(=O)Nc1cccc(Oc2nc(Nc3ccc(NC(=O)N4CCN(C)CC4)c(F)c3)nc3ccsc23)c1`, 50 to 100 nM.

For the compound `C=CC(=O)Nc1cccc(Oc2nc(Nc3ccc(N4CCN(C5CCN(C)CC5)CC4)cc3)nc3ccsc23)c1`, the GI50 is at most 50 nM. Consider `C=CC(=O)Nc1cccc(Oc2nc(Nc3ccc(C4CCN(C(C)C)CC4)cc3)nc3ccsc23)c1`, for which the GI50 was at most 50 nM.

Compound `C=CC(=O)Nc1cccc(Oc2nc(Nc3ccc(N4CCC(N5CCCCC5)CC4)c(F)c3)nc3ccsc23)c1` yielded a GI50 of at most 50 nM. Consider `C=CC(=O)Nc1cccc(Oc2nc(Nc3ccc(N4CCN(C)CC4)cc3F)nc3ccsc23)c1`, for which the GI50 lay within 50 to 100 nM. The same measure, in the same setting: with `C=CC(=O)Nc1cccc(Oc2nc(Nc3ccc(C4=CCN(C)CC4)cc3)nc3ccsc23)c1` the figure was at most 50 nM. Consider `C=CC(=O)Nc1cccc(Oc2nc(Nc3ccc(N4CCCCC4)cc3)nc3ccsc23)c1`, for which the GI50 is at most 50 nM. Compound `C=CC(=O)Nc1cccc(Oc2nc(Nc3ccc(N4CCN(S(=O)(=O)N(C)C)CC4)cc3)nc3ccsc23)c1` came in with a GI50 of 50 to 100 nM.

Consider `C=CC(=O)Nc1cccc(Oc2nc(Nc3ccc(NC(=O)CCN4CCCC4)cc3)nc3ccsc23)c1`, for which the GI50 was at most 50 nM. On to `C=CC(=O)Nc1cccc(Oc2nc(Nc3ccc(C(=O)OCCCN(C)C)cc3)nc3ccsc23)c1`, for which the GI50 is 50 to 100 nM. As for `C=CC(=O)Nc1cccc(Oc2nc(Nc3ccc(N4CCN(S(C)(=O)=O)CC4)cc3)nc3ccsc23)c1`, the GI50 was at most 50 nM. For `C=CC(=O)Nc1cccc(Oc2nc(Nc3ccc(N4CCOCC4)c(F)c3)nc3ccsc23)c1`, the GI50 is at most 50 nM. Same read-out and setting: the figure for `C=CC(=O)Nc1ccc(F)c(Oc2nc(Nc3ccc(N4CCN(C)CC4)cc3)nc3ccsc23)c1` is at most 50 nM; for `C=CC(=O)Nc1cccc(Oc2nc(Nc3ccc(NCCN(C)C)cc3)nc3ccsc23)c1` it is 100 to 1000 nM. The same measure, in the same setting: the figure for `C=CC(=O)Nc1cccc(Oc2nc(Nc3ccc(CCO)cc3)nc3ccsc23)c1` is at most 50 nM; for `C=CC(=O)Nc1cccc(Oc2nc(Nc3ccc(N4CCC(CO)CC4)cc3)nc3ccsc23)c1` it is 50 to 100 nM; for `C=CC(=O)Nc1cccc(Nc2nc(Nc3ccc(CN4CCCCC4)cc3)nc3ccsc23)c1` it is at most 50 nM. For the compound `C=CC(=O)Nc1cccc(Oc2nc(Nc3ccc(CCN4CCN(CC)CC4)cc3)nc3ccsc23)c1`, the GI50 was at most 50 nM. The same measure, in the same setting: with `C=CC(=O)Nc1cccc(Oc2nc(Nc3ccc(C(=O)NC4CCN(C)CC4)cc3)nc3ccsc23)c1` the figure was at most 50 nM; with `C=CC(=O)Nc1cccc(Oc2nc(Nc3ccc(OCCN4CCOCC4)c(OC)c3)nc3ccsc23)c1`, at most 50 nM; with `C=CC(=O)Nc1cccc(Oc2nc(Nc3ccc(N4CCN(C(C)C)CC4)cc3)nc3ccsc23)c1`, at most 50 nM. The same measure, in the same setting: the figure for `C=CC(=O)Nc1cccc(Nc2nc(Nc3ccc(NC4CCN(C)CC4)c(F)c3)nc3ccsc23)c1` is 50 to 100 nM. Compound `C=CC(=O)Nc1cccc(Oc2nc(Nc3ccc(N4CCN(C(C)(C)C)CC4)cc3)nc3ccsc23)c1` had a GI50 of at most 50 nM.

Consider `C=CC(=O)Nc1cccc(Oc2nc(Nc3ccc(N4CCC(n5ccnc5)CC4)cc3)nc3ccsc23)c1`, for which the GI50 is at most 50 nM. `C=CC(=O)Nc1cccc(Oc2nc(Nc3ccc(N4CCC(N5CCCC5)CC4)cc3)nc3ccsc23)c1` showed a concentration for 50% growth inhibition (GI50) of at most 50 nM. The same measure, in the same setting: the figure for `C=CC(=O)Nc1cccc(Oc2nc(Nc3ccc(C4CCN(C)CC4)c(F)c3)nc3ccsc23)c1` is at most 50 nM; for `C=CC(=O)Nc1cccc(Nc2nc(Nc3ccc(CCN4CCN(C)CC4)cc3)nc3ccsc23)c1` it is at most 50 nM; for `C=CC(=O)Nc1cccc(Oc2nc(Nc3ccc(CN4CCOCC4)cc3)nc3ccsc23)c1` it is at most 50 nM.

On to `C=CC(=O)Nc1cccc(Oc2nc(Nc3ccc(C4CCN(C)CC4)c(F)c3)nc3ccoc23)c1`, for which the GI50 was at most 50 nM. The same measure, in the same setting: with `C=CC(=O)Nc1cccc(Oc2nc(Nc3ccc(CN4CCC(N(C)C)CC4)cc3)nc3ccoc23)c1` the figure was 50 to 100 nM; with `C=CC(=O)Nc1cccc(Oc2nc(Nc3ccc(CN4CCC(N5CCOCC5)CC4)cc3)nc3ccsc23)c1`, at most 50 nM. The same measure, in the same setting: the figure for `C=CC(=O)Nc1cccc(Oc2nc(Nc3ccc(C(=O)NCCN(C)C)cc3)nc3ccsc23)c1` is 100 to 1000 nM; for `C=CC(=O)Nc1cccc(Sc2nc(Nc3ccc(C4CCN(C)CC4)c(F)c3)nc3ccsc23)c1` it is at most 50 nM. Take `C=CC(=O)Nc1cccc(Oc2nc(Nc3ccc(S(=O)(=O)NC4CC4)cc3)nc3ccsc23)c1`: the GI50 was at most 50 nM. The compound `C=CC(=O)Nc1cccc(Oc2nc(Nc3ccc(CN4CCC(N(C)C)CC4)c(F)c3)nc3ccsc23)c1` gave a GI50 of 50 to 100 nM.

The values are drawn from the Kinase Knowledgebase extract (Sharma et al. 2016).
